# Measured values taken from patent publication US10844013B2, “Phenyl amino piperidine mTORC inhibitors and uses thereof” (Navitor Pharmaceuticals, Inc., priority 2016, dated 2020).
# pIC50: −log10 of the molar value.
# How the values were obtained:
# [1] = test system: pS6K1 (p-p70 S6 Kinase (Thr389)) in MCF-7 cells; experiment: AlphaLISA Ultra pS6K1 assay; format: cell-based; settings: Homo sapiens, MCF7, 2 h, 2 hours compound incubation
# Summary of the method: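 MCF-7 cells seeded 20–24 h, medium refreshed 2 h, then treated 2 h with compound (0.5% DMSO final). Lysates probed for Thr389-phosphorylated p70 S6K by AlphaLISA Ultra, 2 h acceptor then 2 h donor bead incubation, read on a multimode reader.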
# [2] = test system: pAKT (p-Akt 1/2/3 (Ser473)) in MCF-7 cells; experiment: AlphaLISA Ultra pAKT assay; format: cell-based; settings: Homo sapiens, MCF7, 2 hours compound incubation
# Summary of the method: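 AlphaLISA read-out (2 h acceptor-bead, then 2 h donor-bead incubation) on thawed lysates of MCF-7 cells exposed to compounds for 2 h in 0.5% DMSO. Cells had been plated 20-24 h and given fresh medium 2 h before dosing.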
pIC50 [1],pIC50 [2],Compound
6.00 to 8.00,< 5.00,"Cc1cc(C)c(C(=O)N2CCN(c3ccccc3S(C)(=N)=O)CC2)cc1NC1CCN(c2ccccc2C#N)CC1 (stereo not drawn) [I-62, 2-(4-{[5-(4-{2-[imino(methyl)oxo-λ^6-sulfanyl]phenyl}piperazine-1-carbonyl)-2,4-dimethylphenyl]amino}piperidin-1-yl)benzonitrile]"
6.00 to 8.00,< 5.00,"Cc1cc(C)c(C(=O)N2CCN(c3ccccc3)C(CO)C2)cc1NC1CCN(c2ccccc2C#N)CC1 (stereo not drawn) [I-63, 2-[4-({5-[3-(Hydroxymethyl)-4-phenylpiperazine-1-carbonyl]-2,4-dimethylphenyl}amino)piperidin-1-yl]benzonitrile]"
6.00 to 8.00,< 5.00,CNC(=O)c1ccccc1N1CCN(C(=O)c2cc(NC3CCN(c4ccccc4C#N)CC3)c(C)cc2C)CC1 [I-64]
6.00 to 8.00,< 5.00,CNC(=O)c1cc(F)ccc1N1CCN(C(=O)c2cc(NC3CCN(c4ccccc4C#N)CC3)c(C)cc2C)CC1 [I-65]
6.00 to 8.00,< 5.00,"Cc1cc(C)c(C(=O)N2CCN(c3ccccc3S(N)(=O)=O)CC2)nc1NC1CCN(c2ccccc2C#N)CC1 [I-66, 2-(4-(6-(1-(2-Cyanophenyl)piperidin-4-ylamino)-3,5-dimethylpicolinoyl)piperazin-1-yl)benzenesulfonamide]"
6.00 to 8.00,< 5.00,Cc1cc(C)c(C(=O)N2CCN(c3ccccc3S(N)(=O)=O)CC2)cc1NC1CCN(c2ccccc2C#N)CC1 [I-67]
6.00 to 8.00,< 5.00,"Cc1cc(C)c(N(C)C2CCN(c3ccccc3C#N)CC2)cc1C(=O)N1CCN(c2ccccc2C#N)CC1 [I-68, 2-[4-({5-[4-(2-cyanophenyl)piperazine-1-carbonyl]-2,4-dimethylphenyl}(methyl)amino)piperidin-1-yl]benzonitrile]"
6.00 to 8.00,< 5.00,"Cc1cc(C)c(C(=O)N2CCN(c3cc(F)c(F)cc3C#N)C[C@@H]2C)cc1NC1CCN(c2ccccc2C#N)CC1 [I-69, 2-[(3S)-4-(5-{[1-(2-Cyanophenyl)piperidin-4-yl]amino}-2,4-dimethylbenzoyl)-3-methylpiperazin-1-yl]-4,5-difluorobenzonitrile]"
5.30 to 5.52,< 5.00,"Cc1cc(C)c(C(=O)N2CCN(c3cccnn3)CC2)cc1NC1CCN(c2ccccc2C#N)CC1 [I-70, 2-[4-({2,4-Dimethyl-5-[4-(pyridazin-3-yl)piperazine-1-carbonyl]phenyl}amino)piperidin-1-yl]benzonitrile]"
6.00 to 8.00,< 5.00,"Cc1cc(C)c(C(=O)N2CCN(c3ccccc3C#N)CC2)cc1NC1CCN(c2ccccc2C#N)CC1 [I-71, 2-[4-({5-[4-(2-Cyanophenyl)piperazine-1-carbonyl]-2,4-dimethylphenyl}amino)piperidin-1-yl]benzonitrile]"
5.30 to 5.52,< 5.00,"Cc1cc(C)c(C(=O)N2CCN(c3ccc(F)cn3)C(=O)C2)cc1NC1CCN(c2ccccc2C#N)CC1 [I-72, 2-[4-({5-[4-(5-Fluoropyridin-2-yl)-3-oxopiperazine-1-carbonyl]-2,4-dimethylphenyl}amino)piperidin-1-yl]benzonitrile]"
5.30 to 5.52,< 5.00,"Cc1cc(C)c(C(=O)N2CCN(c3ccccc3)C(CO)C2)cc1NC1CCN(c2ccccc2)C1 (stereo not drawn) [I-73, (4-{2,4-Dimethyl-5-[(1-phenylpyrrolidin-3-yl)amino]benzoyl}-1-phenylpiperazin-2-yl)methanol]"
6.00 to 8.00,< 5.00,"Cc1cc(C)c(C(=O)N2CCN(c3ccccc3F)C(CO)C2)cc1NC1CCN(c2ccccc2C#N)CC1 (stereo not drawn) [I-74, 2-[4-({5-[4-(2-Fluorophenyl)-3-(hydroxymethyl)piperazine-1-carbonyl]-2,4-dimethylphenyl}amino)piperidin-1-yl]benzonitrile]"
6.00 to 8.00,< 5.00,"Cc1cc(C)c(C(=O)N2CCN(c3ccc(F)cc3)C(CO)C2)cc1NC1CCN(c2ccccc2C#N)CC1 (stereo not drawn) [I-76, 2-[4-({5-[4-(4-fluorophenyl)-3-(hydroxymethyl)piperazine-1-carbonyl]-2,4-dimethylphenyl}amino)piperidin-1-yl]benzonitrile]"
5.52 to 6.00,< 5.00,"Cc1cc(C)c(C(=O)N2CCN(c3ccccc3C#N)CC2)cc1NC1CCCN(c2ccc(C#N)cc2)CC1 (stereo not drawn) [I-80, 2-[4-(5-{[1-(4-cyanophenyl)azepan-4-yl]amino}-2,4-dimethylbenzoyl)piperazin-1-yl]benzonitrile]"
< 5.00,< 5.00,"Cc1cc(C)c(C(=O)N2CCN(c3ccccc3C#N)CC2)cc1NC1CCCN(c2cccc(C#N)c2)CC1 (stereo not drawn) [I-81, 2-[4-(5-{[1-(3-cyanophenyl)azepan-4-yl]amino}-2,4-dimethylbenzoyl)piperazin-1-yl]benzonitrile]"
< 5.00,< 5.00,"Cc1cc(C#N)c(NC2CCN(c3ccccc3C#N)CC2)cc1C(=O)N1CCN(c2ccccc2S(N)(=O)=O)CC1 [I-86, 2-(4-(4-Cyano-5-(1-(2-cyanophenyl)piperidin-4-ylamino)-2-methylbenzoyl)piperazin-1-yl)benzenesulfonamide]"
5.52 to 6.00,< 5.00,"Cc1ccc(NC2CCN(c3ccccc3C#N)CC2)c(C)c1C(=O)N1CCN(c2cccc(F)c2S(N)(=O)=O)CC1 [I-87, 2-(4-(3-(1-(2-cyanophenyl)piperidin-4-ylamino)-2,6-dimethylbenzoyl)piperazin-1-yl)-6-fluorobenzenesulfonamide]"
5.30 to 5.52,< 5.00,"Cc1cc(F)c(NC2CCN(c3ccccc3C#N)CC2)cc1C(=O)N1CCN(c2ccccc2S(N)(=O)=O)CC1 [I-90, 2-(4-(5-(1-(2-cyanophenyl)piperidin-4-ylamino)-4-fluoro-2-methylbenzoyl)piperazin-1-y)benzenesulfonamide]"
5.52 to 6.00,< 5.00,"Cc1cc(C)c(C(=O)N2CCN(c3cccc(F)c3S(N)(=O)=O)CC2)cc1NC1CCN(c2c(F)cccc2C#N)CC1 [I-92, 2-(4-(5-(1-(2-Cyano-6-fluorophenyl)piperidin-4-ylamino)-2,4-dimethylbenzoyl)piperazin-1-yl)-6-fluorobenzenesulfonamide]"
5.52 to 6.00,< 5.00,"Cc1cc(C)c(C(=O)N2CCN(c3ncccc3[S@](C)(=N)=O)CC2)cc1NC1CCN(c2ccccc2C#N)CC1 [I-94, (R)-2-(4-(2,4-Dimethyl-5-(4-(3-(S-methylsulfonimidoyl)pyridin-2-yl)piperazine-1-carbonyl)phenylamino)piperidin-1-yl)benzonitrile]"
< 5.00,< 5.00,"Cc1cc(C)c(C(=O)N2CCN(C(C)C)[C@H](CO)C2)cc1NC1CCN(c2ccccc2C#N)CC1 [I-95, (S)-2-(4-(5-(3-(Hydroxymethyl)-4-isopropylpiperazine-1-carbonyl)-2,4-dimethylphenylamino)piperidin-1-yl)benzonitrile]"
5.30 to 5.52,< 5.00,"Cc1cc(C)c(C(=O)N2CCN(CC(F)(F)F)[C@@H](CO)C2)cc1NC1CCN(c2ccccc2C#N)CC1 [I-96, (R)-2-(4-(5-(3-(Hydroxymethyl)-4-(2,2,2-trifluoroethyl)piperazine-1-carbonyl)-2,4-dimethylphenylamino)piperidin-1-yl)benzonitrile]"
< 5.00,< 5.00,"Cc1cc(C)c(C(=O)NC2CCN(c3ccccc3C#N)CC2)cc1NC1CCN(c2ccccc2C#N)CC1 [I-97, N-(1-(2-Cyanophenyl)piperidin-4-yl)-5-(1-(2-cyanophenyl)piperidin-4-ylamino)-2,4-dimethylbenzamide]"
5.00 to 5.30,< 5.00,"Cc1cc(C)c(C(=O)N2CCN(CC(F)(F)F)[C@H](CO)C2)cc1NC1CCN(c2ccccc2C#N)CC1 [I-98, (S)-2-(4-(5-(3-(Hydroxymethyl)-4-(2,2,2-trifluoroethyl)piperazine-1-carbonyl)-2,4-dimethylphenylamino)piperidin-1-yl)benzonitrile]"
5.52 to 6.00,< 5.00,"Cc1cc(C)c(C(=O)N2CCN(c3cc(F)ccn3)[C@@H](CO)C2)cc1NC1CCN(c2ccccc2C#N)CC1 [I-99, (R)-2-(4-(5-(4-(4-Fluoropyridin-2-yl)-3-(hydroxymethyl)piperazine-1-carbonyl)-2,4-dimethylphenylamino)piperidin-1-yl)benzonitrile]"
5.52 to 6.00,< 5.00,"Cc1cccc(N2CCN(C(=O)c3cc(NC4CCN(c5ccccc5C#N)CC4)c(C)cc3C)C[C@@H]2CO)n1 [I-101, (R)-2-(4-(5-(3-(Hydroxymethyl)-4-(6-methylpyridin-2-yl)piperazine-1-carbonyl)-2,4-dimethylphenylamino)piperidin-1-yl)benzonitrile]"
5.52 to 6.00,< 5.00,"Cc1cc(C)c(C(=O)N2CCN(c3ccc(F)cc3S(N)(=O)=O)CC2)nc1NC1CCN(c2ccccc2C#N)CC1 [I-103, 2-(4-(6-(1-(2-cyanophenyl)piperidin-4-ylamino)-3,5-dimethylpicolinoyl)piperazin-1-yl)-5-fluorobenzenesulfonamide]"
6.00 to 8.00,< 5.00,"Cc1cc(C)c(C(=O)N2CCN(c3cc(F)c(F)cc3S(N)(=O)=O)CC2)cc1NC1CCN(c2ccccc2C#N)CC1 [I-104, 2-(4-(5-(1-(2-Cyanophenyl)piperidin-4-ylamino)-2,4-dimethylbenzoyl)piperazin-1-yl)-4,5-difluorobenzenesulfonamide]"
5.52 to 6.00,< 5.00,"COc1cc(C)c(NC2CCN(c3ccccc3C#N)CC2)cc1C(=O)N1CCN(c2ccccc2S(N)(=O)=O)CC1 [I-105, 2-(4-(5-(1-(2-Cyanophenyl)piperidin-4-ylamino)-2-methoxy-4-methylbenzoyl)piperazin-1-yl)benzenesulfonamide]"
